Reference: patent US7470660B2, “Treatment for dark adaptation” (The Regents of the University of California, priority 2001, dated 2008)
“Also recorded” adds a separate entry of the source.

Assays:
[1] = test system: apo E secretion from RPE cells; test: Apo E secretion into basal media of RPE cells, western blot; format: cell-based, human; details: 36 hour incubation, both chambers, T3 10^-7 M, 22 (R) hydroxycholesterol 2.5x10^-6 M, cis retinoic acid 10^-7 M (10^-6 M elsewhere in the source), FIG. 6
Method: Primary cultures of normal human RPE cells from passages 5 to 10 were used for the experiments described. RPE cells were grown to confluence on laminin-coated 6 well Transwell tissue culture plates (Costar) with DMEM-H21 containing 10% fetal bovine serum, 2 mM glutamine, 50 μg/ml gentamicin and 2.5 mg/ml fungizone in the top and bottom chambers. […] Cells were grown for at least 1 week at confluence prior to drug treatment. Cells to be treated with drugs were incubated in serum free DMEM-H21 prior to drug addition. Drug treatments were in serum free DMEM-H21 with or without 10^−7 M thyroid hormone (T3), 2.5×10^−6 M 22 (R) hydroxycholesterol, or 10^−7 M cis retinoic acid in both chambers for 36 hours.
Total protein content was determined by a modified Lowry assay (Bio-Rad DC kit, Richmond, Calif.). Concentrated media (50 μg protein) was made to Start Buffer (0.025 M NaCl, 0.010 M tris (pH 8.5), 5 mM MnCl2) and adsorbed onto a 0.1 ml column containing Heparin-Sepharose CL-4B (Pharmacia, Uppsala, Sweden). Following a 2 ml wash in Start Buffer, the apo E containing bound fraction was eluted with 0.5M NaCl in Start buffer. The eluate was concentrated to 20 μl and buffer-exchanged to SalEN by centrifugal ultrafiltration (Biomax, 5k MCO, Millipore, Bedford, Mass.). Apo E was resolved by tris-tricine buffered SDS-PAGE (5-25% linear acrylamide gradient) and proteins electrophoetically transferred (55V, 18 h) to nitrocelluose membrane filters (Schleicher and Shuell, Keen, N.H.). Membranes were blocked with 10% bovine serum albumin at room temperature and probed with 1% goat anti-human apo E antiserum (18 h, 3° C.) prepared in 0.15% NaCl, 1 mM EDTA (pH 7.4), 0.1% Triton X-100 (SalET). The primary-bound anti-apo E antibodies were detected colorimetrically with horseradish peroxidase conjugated rabbit anti-goat Ig (H+L) and NiCl2-enhanced diaminobenzine staining. Stained bands were compared densitometrically from the digitized scanned image (NIH Image, v.1.62).
In order to distinguish apical (A) from basally (B) secreted apo E, RPE cells were cultured on laminin-coated Transwell plates. […] Total protein and apo E-specific protein concentrations were measured from media pooled and concentrated from 3-6 replicate wells. To assess apo E-specific secretion, apo E was purified from conditioned media by heparin-sepharose affinity chromatography and visualized by western blotting.
Since RPE cells express lxr α as well as thyroid hormone receptors (TRs) and retinoid-X-receptors (RXRs), the effect of 10^−7 M T3, 2.5×10^−6 M 22 (R) hydroxycholesterol (HC) (an lxr α agonist), or 10^−7 M cis retinoic acid (cRA) (an RXR agonist) on apo E secretion from RPE cells was tested. FIG. 6 illustrates the same experimental procedure as described above, but with basal and apical media both containing the following compounds for a 36 hour incubation: T3 (10^−7) M (T); 9 cis-RA (10^−6) M (RA); and 22 (R) hydroxycholesterol 2.5 (10^−6) M (HC).
Control (C) refers to no drug addition; T refers to 10^−7 M T3; RA refers to 10^−7 M cis retinoic acid; and HC refers to 2.5×10^−6 M 22(R) hydroxycholesterol. Basal media from 3 wells were combined, concentrated, and apo E was detected by western blotting.

cultured human RPE cells = test: 14C-DHA labeled POS efflux into basal media after drug treatment; format: cell-based; details: 36 hours; 10^-7 M T3, 2.5x10^-5 M 22 (R) hydroxycholesterol or 10^-7 M cis retinoic acid; basal medium 1 mg/ml HDL; FIG. 10
Method: Bovine outer photoreceptor outer segments (POS) were labeled by incubating […] Coenzyme A, ATP, Mg^2+, and [^14C]-DHA. Cells grown on laminin coated Transwell plates were incubated with 12 μg/ml labeled POS in the apical chamber for 36 hours in medium containing 10% lipoprotein deficient fetal bovine serum. The basal medium was subjected to scintillation counting to determine the amount of [^14C] labeled lipids transported through the RPE cells.
This experiment determines whether compound administration can upregulate efflux of labeled POS residues to HDL, particularly by showing regulation of ^14C-DHA labeled POS efflux into basal media. An assay similar to that described in Example 4 is utilized; however, in this Example the cells were treated with T3, 9 cis-retinoic acid, and 22 (R) hydroxycholesterol in the concentrations described above for 36 hours. Total radioactivity (cpm) in the absence of HDL purification was determined by liquid scintillation counting of the basal media.
Specifically, cells were grown for 1 to 2 weeks at confluence on Transwell plates. ^14C-labeled POS […] were added to the apical medium. The apical and basal medium comprised either 10^−7 M T3, 2.5×10^−5 M 22 (R) hydroxycholesterol, or 10^−7 M cis retinoic acid. The basal medium contained 1 mg/ml HDL. After 36 hours the basal medium was collected and ^14C counts were determined by scintillation counting.

[2] = test system: apo E secretion from RPE cells; test: Apo E secretion from RPE cells, ELISA; format: cell-based, human; details: 36 hours, serum free DMEM; 10^-7 M T3; 2.5x10^-6 M 22(R) hydroxycholesterol; 10^-7 M cis retinoic acid; alone and in combination; FIG. 14
Method: RPE cells were treated for 36 hours on Transwell® plates with serum free DMEM +/− the drugs indicated. Control refers to no drug addition, T refers to 10^−7 M T3; HC refers to 2.5×10^−6 M 22(R) hydroxycholesterol; RA refers to 10^−7 M cis retinoic acid. N=6, * indicates p<0.05 (two-tailed t-test) compared to Control.
Media samples treated with 0.1% Tween-20 containing 1% bovine serum albumin were incubated (37° C., 4 h) in 96-well plates previously coated with apo E-affinity purified goat anti-apo E antibody. Apo E was detected using a secondary antibody-peroxidase conjugate and 3.3.5.5′-[…] (TMB) substrate. Optical density was measured at 450 nm. The assay was calibrated with purified plasma apo E. The dynamic range of the assay was 1-40 ng/ml apo E with a CV<5%.

[3] = test system: Human retinal pigment epithelial cells; test: 14C-labeled lipid efflux from RPE cells with HDL, apoA-I or apoA-I vesicles; format: cell-based; details: basal chamber, 36 hours, vs Control; FIG. 19
Method: The present inventors have created liposomes comprising apoA-I (artificial preβ1 HDL). Artificial discoidal apoA-I liposomes comprising purified human plasma apoAI, the saturated phospholipid dimyristoyl-L-α-phoshatidylcholine (DMPC) and cholesterol were constructed by the sodium cholate dialysis method. Liposomes were prepared using a molar ratio of approximately 1/5/95, apoA-I/free cholesterol/DMPC. Human retinal pigment epithelial cells grown on 6 well laminin coated Transwell® plates were fed ^14C-docosahexaenoic acid labeled photoreceptor outer segments in medium containing 5% lipoprotein free fetal bovine serum for 36 hours (apical chamber). Basal chambers contained serum free medium and either no human high density lipoprotein (HDL) (Control), 100 μg/ml of human HDL, pure human apoA-I, or human apoA-I vesicles. An aliquot of the basal medium was subjected to liquid scintillation counting. Wells were treated in triplicate. HDL stimulated ^14C-labeled lipid efflux by about 60%.

Molecule	basal Apo E expression/secretion (Western blot of basal media) [1]	transport of 14C-labeled POS to the basal medium (cultured human RPE cells)	apo E secretion (ELISA) [2]	basal Apo E expression/secretion (Western blot of basal media) ([1]; listed as 9 cis-RA)	basal Apo E expression/secretion (Western blot of basal media) ([1]; listed as RA)	basal Apo E expression/secretion (Western blot of basal media) ([1]; listed as HC)	stimulation of 14C-labeled lipid efflux (in words) [3]
N[C@@H](Cc1cc(I)c(Oc2ccc(O)c(I)c2)c(I)c1)C(=O)O [T3, 3,5,3′-L-triiodothyronine]	increased basal expression of Apo E; also recorded: stimulate basal apo E secretion	increased transport of ^14C-labeled POS to the basal medium	upregulate apo E secretion	–	–	–	–
CC1=C(/C=C/C(C)=C\C=C\C(C)=C\C(=O)O)C(C)(C)CCC1 [cis retinoic acid, 9 cis-retinoic acid]	–	increased transport of ^14C-labeled POS to the basal medium	upregulate apo E secretion	increased basal expression of Apo E	stimulate basal apo E secretion	–	–
CC(C)CC[C@@H](O)[C@@H](C)[C@H]1CC[C@H]2[C@@H]3CC=C4C[C@@H](O)CC[C@]4(C)[C@H]3CC[C@]12C [22 (R) hydroxycholesterol]	increased basal expression of Apo E	increased transport of ^14C-labeled POS to the basal medium	upregulate apo E secretion	–	–	stimulate basal apo E secretion	–
ApoA-I: pure human apoA-I, purified from human plasma; major lipoprotein component of HDL	–	–	–	–	–	–	appeared to stimulate
